Experimental data published in the Kinase Knowledgebase extract (Sharma et al. 2016).

Tests used:
PIK3CA (human) = PIK3CA (human) (UniProt P42336); test: Assessment of PIK3CA Kinase Activity
PIK3CB (Human) = PIK3CB (Human) (UniProt P42338); test: Assessment of PIK3CB Kinase Activity
Sequence of PIK3CB (Human) (P42338 whole entry, looked up): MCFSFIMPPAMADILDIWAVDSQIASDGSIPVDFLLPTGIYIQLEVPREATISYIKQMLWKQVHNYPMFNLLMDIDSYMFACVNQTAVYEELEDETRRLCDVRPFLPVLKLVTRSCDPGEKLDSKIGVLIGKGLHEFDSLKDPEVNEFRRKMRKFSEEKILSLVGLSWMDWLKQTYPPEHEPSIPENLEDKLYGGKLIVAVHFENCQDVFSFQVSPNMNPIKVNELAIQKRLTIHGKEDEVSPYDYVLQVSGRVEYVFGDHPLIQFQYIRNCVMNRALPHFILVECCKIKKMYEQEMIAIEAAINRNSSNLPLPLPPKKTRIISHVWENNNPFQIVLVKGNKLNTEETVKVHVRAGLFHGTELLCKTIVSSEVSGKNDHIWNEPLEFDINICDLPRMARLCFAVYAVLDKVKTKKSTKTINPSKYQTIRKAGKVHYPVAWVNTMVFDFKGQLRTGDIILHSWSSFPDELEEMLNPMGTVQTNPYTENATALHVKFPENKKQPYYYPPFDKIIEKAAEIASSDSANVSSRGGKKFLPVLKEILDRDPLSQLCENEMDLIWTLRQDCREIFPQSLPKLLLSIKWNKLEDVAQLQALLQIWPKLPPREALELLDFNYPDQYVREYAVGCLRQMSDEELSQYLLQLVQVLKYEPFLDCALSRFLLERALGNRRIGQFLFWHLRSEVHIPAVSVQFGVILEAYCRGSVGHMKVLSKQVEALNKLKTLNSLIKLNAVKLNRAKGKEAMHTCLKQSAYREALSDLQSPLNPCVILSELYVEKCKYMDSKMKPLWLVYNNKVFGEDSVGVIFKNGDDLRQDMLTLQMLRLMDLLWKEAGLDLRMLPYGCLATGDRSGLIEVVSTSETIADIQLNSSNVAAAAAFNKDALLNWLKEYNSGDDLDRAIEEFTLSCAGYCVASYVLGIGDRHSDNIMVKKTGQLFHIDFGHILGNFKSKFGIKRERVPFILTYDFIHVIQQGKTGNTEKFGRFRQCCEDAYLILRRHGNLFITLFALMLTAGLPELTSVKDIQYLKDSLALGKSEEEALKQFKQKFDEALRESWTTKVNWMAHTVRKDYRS

Sequence of PIK3CA (human) (P42336 whole entry, looked up): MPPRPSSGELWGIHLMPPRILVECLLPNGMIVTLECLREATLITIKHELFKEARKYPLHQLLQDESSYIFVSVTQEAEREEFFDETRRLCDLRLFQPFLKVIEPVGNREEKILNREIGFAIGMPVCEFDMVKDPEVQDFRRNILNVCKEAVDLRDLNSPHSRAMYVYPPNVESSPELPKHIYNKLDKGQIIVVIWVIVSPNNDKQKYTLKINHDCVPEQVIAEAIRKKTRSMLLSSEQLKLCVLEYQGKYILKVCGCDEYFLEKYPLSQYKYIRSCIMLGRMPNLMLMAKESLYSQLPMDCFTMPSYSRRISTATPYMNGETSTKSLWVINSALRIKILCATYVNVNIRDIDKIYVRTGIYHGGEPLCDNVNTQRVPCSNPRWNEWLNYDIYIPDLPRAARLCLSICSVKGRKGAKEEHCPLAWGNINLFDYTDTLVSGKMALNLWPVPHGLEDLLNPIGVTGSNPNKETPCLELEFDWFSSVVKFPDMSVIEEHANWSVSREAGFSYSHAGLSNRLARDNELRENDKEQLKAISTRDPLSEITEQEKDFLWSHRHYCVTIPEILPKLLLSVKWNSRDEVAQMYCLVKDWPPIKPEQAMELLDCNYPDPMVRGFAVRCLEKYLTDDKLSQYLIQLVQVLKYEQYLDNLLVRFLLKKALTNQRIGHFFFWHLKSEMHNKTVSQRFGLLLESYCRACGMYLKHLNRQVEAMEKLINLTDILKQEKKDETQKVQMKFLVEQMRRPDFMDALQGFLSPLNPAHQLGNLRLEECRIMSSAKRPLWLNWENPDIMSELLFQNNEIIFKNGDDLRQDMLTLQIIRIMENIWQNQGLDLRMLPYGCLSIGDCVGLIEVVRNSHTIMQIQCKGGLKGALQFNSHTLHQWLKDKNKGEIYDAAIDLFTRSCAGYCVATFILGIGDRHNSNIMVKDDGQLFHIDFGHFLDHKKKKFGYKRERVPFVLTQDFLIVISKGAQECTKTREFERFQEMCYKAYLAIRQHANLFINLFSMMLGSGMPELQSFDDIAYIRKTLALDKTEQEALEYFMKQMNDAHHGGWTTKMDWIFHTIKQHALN

COc1c(OCCCN2CCOCC2)ccc2c1N=C(NC(=O)c1cnc(N)s1)N1CCN=C21
IC50 (PIK3CA (human)): < 10 nM
IC50 (PIK3CB (Human)): < 10 nM

COc1c(OCCCN2CCOCC2)ccc2c1N=C(NC(=O)c1ccc(N)nc1)N1CCN=C21
IC50 (PIK3CA (human)): < 10 nM
IC50 (PIK3CB (Human)): < 10 nM

COc1c(OCCCN2C[C@@H](C)O[C@@H](C)C2)ccc2c1N=C(NC(=O)c1sc(C)nc1C)N1CCN=C21
IC50 (PIK3CA (human)): < 10 nM
IC50 (PIK3CB (Human)): < 10 nM

COc1c(OCCCN2CCOCC2)ccc2c1N=C(NC(=O)c1ccc(F)nc1)N1CCN=C21
IC50 (PIK3CA (human)): < 10 nM
IC50 (PIK3CB (Human)): < 10 nM

COCCNc1ccc(C(=O)NC2=Nc3c(ccc(OCCCN4CCOCC4)c3OC)C3=NCCN23)cn1
IC50 (PIK3CA (human)): < 10 nM
IC50 (PIK3CB (Human)): < 10 nM

COc1c(OCCCN2C[C@@H](C)O[C@@H](C)C2)ccc2c1N=C(NC(=O)c1cccnc1)N1CCN=C21
IC50 (PIK3CA (human)): < 10 nM
IC50 (PIK3CB (Human)): < 10 nM

COc1c(OCC2CN(C)CCO2)ccc2c1N=C(NC(=O)c1cccnc1)N1CCN=C21 (centres undefined)
IC50 (PIK3CA (human)): < 10 nM
IC50 (PIK3CB (Human)): < 10 nM

COc1cncc(C(=O)NC2=Nc3c(ccc(OCCCN4CCOCC4)c3OC)C3=NCCN23)c1
IC50 (PIK3CA (human)): < 10 nM
IC50 (PIK3CB (Human)): < 10 nM

COc1c(OCCCN(C)C)ccc2c1N=C(NC(=O)c1cccnc1)N1CCN=C21
IC50 (PIK3CA (human)): < 10 nM
IC50 (PIK3CB (Human)): < 10 nM

COc1c(OCCCN2CCOCC2)ccc2c1N=C(NC(=O)c1ccc(N)nc1C)N1CCN=C21
IC50 (PIK3CA (human)): < 10 nM
IC50 (PIK3CB (Human)): < 10 nM

COc1c(OCCCN2CCOCC2)ccc2c1N=C(NC(=O)c1ccc(N3CC[C@H](N)C3)nc1)N1CCN=C21
IC50 (PIK3CA (human)): < 10 nM
IC50 (PIK3CB (Human)): < 10 nM

COCCN1CCOC(CCCOc2ccc3c(c2OC)N=C(NC(=O)c2cccnc2)N2CCN=C32)C1 (centres undefined)
IC50 (PIK3CA (human)): < 10 nM
IC50 (PIK3CB (Human)): < 10 nM

COc1c(OCCCN2C[C@@H](C)O[C@@H](C)C2)ccc2c1N=C(NC(=O)c1ccc(NC(C)=O)nc1)N1CCN=C21
IC50 (PIK3CA (human)): < 10 nM
IC50 (PIK3CB (Human)): < 10 nM

COc1c(OCCCN2CCOCC2)ccc2c1N=C(NC(=O)c1sc(N)nc1C)N1CCN=C21
IC50 (PIK3CA (human)): < 10 nM
IC50 (PIK3CB (Human)): < 10 nM

COc1c(OCCCN2CCOCC2)ccc2c1N=C(NC(=O)c1cnc(NCCO)nc1)N1CCN=C21
IC50 (PIK3CA (human)): < 10 nM
IC50 (PIK3CB (Human)): < 10 nM

COc1c(OCCCN2C[C@@H](C)O[C@@H](C)C2)ccc2c1N=C(NC(=O)c1ccc(C)nc1)N1CCN=C21
IC50 (PIK3CA (human)): < 10 nM
IC50 (PIK3CB (Human)): < 10 nM

CNCCCOc1ccc2c(c1OC)N=C(NC(=O)c1cccnc1)N1CCN=C21
IC50 (PIK3CA (human)): < 10 nM
IC50 (PIK3CB (Human)): < 10 nM

COc1c(OCCCN2CCOCC2)ccc2c1N=C(NC(=O)c1ccc(NC(=O)C3CC3)nc1)N1CCN=C21
IC50 (PIK3CA (human)): < 10 nM
IC50 (PIK3CB (Human)): < 10 nM

COc1c(OCCN2CCOCC2)ccc2c1N=C(NC(=O)c1cccnc1)N1CCN=C21
IC50 (PIK3CA (human)): < 10 nM
IC50 (PIK3CB (Human)): < 10 nM

COc1c(OCCCN(C)C)ccc2c1N=C(NC(=O)c1ccc(N)nc1)N1CCN=C21
IC50 (PIK3CA (human)): < 10 nM
IC50 (PIK3CB (Human)): < 10 nM

COc1c(OCCCN2C[C@@H](C)O[C@@H](C)C2)ccc2c1N=C(NC(=O)c1cnc(N)nc1)N1CCN=C21
IC50 (PIK3CA (human)): < 10 nM
IC50 (PIK3CB (Human)): < 10 nM

COc1c(OCCCN2CCOCC2)ccc2c1N=C(NC(=O)c1ccc(NCc3ccco3)nc1)N1CCN=C21
IC50 (PIK3CA (human)): < 10 nM
IC50 (PIK3CB (Human)): < 10 nM

COc1c(OCCCN2CCOCC2)ccc2c1N=C(NC(=O)c1ccc(N(C)C)nc1)N1CCN=C21
IC50 (PIK3CA (human)): < 10 nM
IC50 (PIK3CB (Human)): < 10 nM

COc1c(OCCCN2CCOCC2)ccc2c1N=C(NC(=O)c1cnc(N)c(Br)c1)N1CCN=C21
IC50 (PIK3CA (human)): < 10 nM
IC50 (PIK3CB (Human)): < 10 nM

CCN(CC)CCCOc1ccc2c(c1OC)N=C(NC(=O)c1cccnc1)N1CCN=C21
IC50 (PIK3CA (human)): < 10 nM
IC50 (PIK3CB (Human)): < 10 nM

COc1c(OCCCC2CN(CC3CCC3)CCO2)ccc2c1N=C(NC(=O)c1cccnc1)N1CCN=C21 (centres undefined)
IC50 (PIK3CA (human)): < 10 nM
IC50 (PIK3CB (Human)): < 10 nM

COc1c(OCCN(C)C)ccc2c1N=C(NC(=O)c1cncnc1)N1CCN=C21
IC50 (PIK3CA (human)): < 10 nM
IC50 (PIK3CB (Human)): < 10 nM

COc1c(OCCCN2CCOCC2)ccc2c1N=C(NC(=O)c1cccnc1)N1CCN=C21
IC50 (PIK3CA (human)): < 10 nM
IC50 (PIK3CB (Human)): < 10 nM

CNC(=O)Nc1ccc(C(=O)NC2=Nc3c(ccc(OCCCN4CCOCC4)c3OC)C3=NCCN23)cn1
IC50 (PIK3CA (human)): < 10 nM
IC50 (PIK3CB (Human)): < 10 nM

COc1c(OCC2CNCCO2)ccc2c1N=C(NC(=O)c1cccnc1)N1CCN=C21 (centres undefined)
IC50 (PIK3CA (human)): < 10 nM
IC50 (PIK3CB (Human)): < 10 nM

COc1c(OCCCN2CCOCC2)ccc2c1N=C(NC(=O)c1ccc(N3CC[C@@H](N)C3)nc1)N1CCN=C21
IC50 (PIK3CA (human)): < 10 nM
IC50 (PIK3CB (Human)): < 10 nM

COc1c(OCCCN2CCOCC2)ccc2c1N=C(NC(=O)c1ccc(NC(=O)C(C)C)nc1)N1CCN=C21
IC50 (PIK3CA (human)): < 10 nM
IC50 (PIK3CB (Human)): < 10 nM

COc1c(OCCN(C)C)ccc2c1N=C(NC(=O)c1sc(C)nc1C)N1CCN=C21
IC50 (PIK3CA (human)): < 10 nM
IC50 (PIK3CB (Human)): < 10 nM

COc1c(OCCCN2CCOCC2)ccc2c1N=C(NC(=O)c1ccc(C)nc1)N1CCN=C21
IC50 (PIK3CA (human)): < 10 nM
IC50 (PIK3CB (Human)): < 10 nM

COc1c(OCC(CO)CN2CCOCC2)ccc2c1N=C(NC(=O)c1cccnc1)N1CCN=C21 (centres undefined)
IC50 (PIK3CA (human)): < 10 nM
IC50 (PIK3CB (Human)): < 10 nM

COc1c(OCCCN2CCOCC2)ccc2c1N=C(NC(=O)c1cncn1C)N1CCN=C21
IC50 (PIK3CA (human)): < 10 nM
IC50 (PIK3CB (Human)): < 10 nM

COc1c(OCCCN2CCOCC2)ccc2c1N=C(NC(=O)c1cncnc1)N1CCN=C21
IC50 (PIK3CA (human)): < 10 nM
IC50 (PIK3CB (Human)): < 10 nM

CCCc1nc(N)ncc1C(=O)NC1=Nc2c(ccc(OCCCN3CCOCC3)c2OC)C2=NCCN12
IC50 (PIK3CA (human)): < 10 nM
IC50 (PIK3CB (Human)): < 10 nM

COc1c(OCCCN2CCOCC2)ccc2c1N=C(NC(=O)c1ccnc(N)c1)N1CCN=C21
IC50 (PIK3CA (human)): < 10 nM
IC50 (PIK3CB (Human)): < 10 nM

COc1c(OCCCN)ccc2c1N=C(NC(=O)c1cccnc1)N1CCN=C21
IC50 (PIK3CA (human)): < 10 nM
IC50 (PIK3CB (Human)): < 10 nM

COc1c(OCCCN2CCOCC2)ccc2c1N=C(NC(=O)c1cnc(NCCN(C)C)nc1)N1CCN=C21
IC50 (PIK3CA (human)): < 10 nM
IC50 (PIK3CB (Human)): < 10 nM

CCN1CCOC(CCOc2ccc3c(c2OC)N=C(NC(=O)c2cccnc2)N2CCN=C32)C1 (centres undefined)
IC50 (PIK3CA (human)): < 10 nM
IC50 (PIK3CB (Human)): < 10 nM

COc1c(OCCCN2CCOCC2)ccc2c1N=C(NC(=O)c1cnc(N)nc1C)N1CCN=C21
IC50 (PIK3CA (human)): < 10 nM
IC50 (PIK3CB (Human)): < 10 nM

COc1c(OCCCN2CCOCC2)ccc2c1N=C(NC(=O)c1cnc(N)o1)N1CCN=C21
IC50 (PIK3CA (human)): < 10 nM
IC50 (PIK3CB (Human)): < 10 nM

COc1c(OCCCN2CCCCC2)ccc2c1N=C(NC(=O)c1cccnc1)N1CCN=C21
IC50 (PIK3CA (human)): < 10 nM
IC50 (PIK3CB (Human)): < 10 nM

COc1c(OCCCN2CCOCC2)ccc2c1N=C(NC(=O)c1ccc(NC(=O)NC(C)C)nc1)N1CCN=C21
IC50 (PIK3CA (human)): < 10 nM
IC50 (PIK3CB (Human)): < 10 nM

COCCN1CCOC(COc2ccc3c(c2OC)N=C(NC(=O)c2cccnc2)N2CCN=C32)C1 (centres undefined)
IC50 (PIK3CA (human)): < 10 nM
IC50 (PIK3CB (Human)): < 10 nM

COc1c(OCCCN2C[C@@H](C)O[C@@H](C)C2)ccc2c1N=C(NC(=O)c1cncnc1)N1CCN=C21
IC50 (PIK3CA (human)): < 10 nM
IC50 (PIK3CB (Human)): < 10 nM

COc1c(OCCN(C)C)ccc2c1N=C(NC(=O)c1cccnc1)N1CCN=C21
IC50 (PIK3CA (human)): < 10 nM
IC50 (PIK3CB (Human)): < 10 nM

COCCNc1ncc(C(=O)NC2=Nc3c(ccc(OCCCN4CCOCC4)c3OC)C3=NCCN23)cn1
IC50 (PIK3CA (human)): < 10 nM
IC50 (PIK3CB (Human)): < 10 nM

COc1c(OCCCN(C)C)ccc2c1N=C(NC(=O)c1ccc[n+]([O-])c1)N1CCN=C21
IC50 (PIK3CA (human)): < 10 nM

COc1c(OCCCN(C)C)ccc2c1N=C(NC(=O)c1cnc(NCCN(C)C)nc1)N1CCN=C21
IC50 (PIK3CA (human)): < 10 nM
IC50 (PIK3CB (Human)): < 10 nM

COc1c(OCCN2CCCC2)ccc2c1N=C(NC(=O)c1cccnc1)N1CCN=C21
IC50 (PIK3CA (human)): < 10 nM
IC50 (PIK3CB (Human)): < 10 nM

COc1c(OCCCN2CCOCC2)ccc2c1N=C(NC(=O)c1sc(C)nc1C)N1CCN=C21
IC50 (PIK3CA (human)): < 10 nM
IC50 (PIK3CB (Human)): < 10 nM

COc1c(OCCCN(C)C)ccc2c1N=C(NC(=O)c1cnc(N)s1)N1CCN=C21
IC50 (PIK3CA (human)): < 10 nM
IC50 (PIK3CB (Human)): < 10 nM

COc1c(OCCCN2CCOC(CO)C2)ccc2c1N=C(NC(=O)c1cccnc1)N1CCN=C21 (centres undefined)
IC50 (PIK3CA (human)): < 10 nM
IC50 (PIK3CB (Human)): < 10 nM

COc1c(OCCCN2C[C@@H](C)O[C@@H](C)C2)ccc2c1N=C(NC(=O)c1ccc(N)nc1)N1CCN=C21
IC50 (PIK3CA (human)): < 10 nM
IC50 (PIK3CB (Human)): < 10 nM

CCN(CC)CCOc1ccc2c(c1OC)N=C(NC(=O)c1cccnc1)N1CCN=C21
IC50 (PIK3CA (human)): < 10 nM
IC50 (PIK3CB (Human)): < 10 nM

COc1c(OCCN2CCCCC2)ccc2c1N=C(NC(=O)c1cccnc1)N1CCN=C21
IC50 (PIK3CA (human)): < 10 nM
IC50 (PIK3CB (Human)): < 10 nM

COc1c(OCCCN(C)C)ccc2c1N=C(NC(=O)c1cnc(N)nc1)N1CCN=C21
IC50 (PIK3CA (human)): < 10 nM
IC50 (PIK3CB (Human)): < 10 nM
